Drawing on ChEMBL document CHEMBL5113423, “Discovery and preclinical profile of sudapyridine (WX-081), a novel anti-tuberculosis agent” (Bioorg Med Chem Lett, 2022), this text covers MIC50 and MIC90 for five compounds.

What is called MIC50 is the lowest concentration that inhibits either 50% of growth or 50% of the strains tested, depending on the study. Usually MIC90 stands for the lowest concentration that inhibits either 90% of growth or 90% of the strains tested, depending on the study.

Converted amounts (≈) assume the structure as drawn. Bounds are passed on as bounds.

This assay deals with Mycobacterium tuberculosis. Briefly: Antimycobacterial activity against multidrug-resistant Mycobacterium tuberculosis assessed as mycobacterial growth inhibition. The class given is functional.
Regarding `CO[C@H]1/C=C/O[C@@]2(C)Oc3c(C)c(O)c4c(O)c(c(/C=N/N5CCN(C)CC5)c(O)c4c3C2=O)NC(=O)/C(C)=C\C=C\[C@H](C)[C@H](O)[C@@H](C)[C@@H](O)[C@@H](C)[C@H](OC(C)=O)[C@@H]1C` [RIFAMPIN], the MIC50 was more than 40 µg/mL and the MIC90 was more than 40 µg/mL.

Consider `COc1nc(-c2ccc(Cl)cc2)ccc1[C@@H](c1ccccc1)[C@@](O)(CCN(C)C)c1cccc2ccccc12`, for which the MIC50 was determined as 0.111 µg/mL (≈ 0.207 µM) and the MIC90 is 0.465 µg/mL (≈ 0.866 µM).

As to `COc1nc2ccc(Br)cc2cc1[C@@H](c1ccccc1)[C@@](O)(CCN(C)C)c1cccc2ccccc12` [BEDAQUILINE], the MIC50 stood at 0.032 µg/mL (≈ 0.0576 µM) and the MIC90 is 0.111 µg/mL (≈ 0.2 µM).

`NC[C@H]1O[C@H](O[C@H]2[C@H](O)[C@@H](O[C@H]3O[C@H](CO)[C@@H](O)[C@H](N)[C@H]3O)[C@H](N)C[C@@H]2N)[C@H](O)[C@@H](O)[C@@H]1O` [KANAMYCIN]: the MIC50 worked out at 1.24 µg/mL (≈ 2.55 µM) and the MIC90 was more than 40 µg/mL.

Turning to `NNC(=O)c1ccncc1` [ISONIAZID], the MIC50 worked out at 4.21 µg/mL (≈ 30.7 µM) and the MIC90 was more than 40 µg/mL.
